Test results: US11214803B2, “Modulators of YAP1 expression” (Ionis Pharmaceuticals, Inc., priority 2019, dated 2022)
Strand notation (5' to 3'): a small letter for the sugar, then the base; units joined by * are phosphorothioate-linked, units joined directly phosphodiester-linked; [ ] holds rarer units or linkages, { } end groups; capitals alone tell only the bases. k = constrained ethyl (cEt); [5mC] = 5-methylcytosine; d = 2'-deoxy (DNA)

Tested on: Yap1 mRNA
Experiment: Antisense inhibition of human Yap1 in A-431 cells by cEt gapmers, single dose (Example 3, RTS36584)
Assay type: cell-based
How it was run: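 Human epidermoid A-431 cells take up gapmer (2,000 nM, free uptake, ~48 h); Yap1 transcript is then assayed by qRT-PCR with RiboGreen normalization and reported relative to untreated cells. Gapmers carry cEt-modified wings, phosphorothioate linkages and 5-methylcytosine throughout.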

[1] = Table 27, Yap1 mRNA by 3-10-3 cEt gapmers targeting SEQ ID NO.: 1, and 2, percent of untreated control
[2] = Table 8, A-431 cells, 5,000 cells per well, free uptake, 2,000 nM, approximately 48 hours, RTS36584, normalized to RIBOGREEN, Yap1 mRNA relative to untreated control cells
[3] = Table 28, Yap1 mRNA as percent of untreated control, 3-10-3 cEt gapmers targeting SEQ ID NO.: 1, and 2
[4] = Table 11, A-431 cells, 5,000 cells per well, free uptake, 2,000 nM oligonucleotide, approx. 48 hours, primer probe set RTS36584, Yap1 mRNA normalized to RIBOGREEN, percent of untreated control
[5] = Table 26, Yap1 mRNA by 3-10-3 cEt gapmers targeting SEQ ID NO.: 1, and 2, percent of untreated control
[6] = Table 34, Yap1 mRNA as percent of untreated control, 3-10-3 cEt gapmers targeting SEQ ID NO: 1 and 2, single dose
[7] = Table 35, Yap1 mRNA as percent of untreated control, 3-10-3 cEt gapmers targeting SEQ ID NO: 1 and 2, single dose
[8] = Table 9, A-431 cells, 5,000 cells per well, free uptake, 2,000 nM, approximately 48 hours, RTS36584, normalized to RIBOGREEN, Yap1 mRNA relative to untreated control cells
[9] = Table 10, A-431 cells, 5,000 cells per well, free uptake, 2,000 nM oligonucleotide, approx. 48 hours, primer probe set RTS36584, Yap1 mRNA normalized to RIBOGREEN, percent of untreated control
[10] = Table 12, A-431 cells, 5,000 cells per well, free uptake, 2,000 nM modified oligonucleotide, approx. 48 hours, RTS36584, normalized to RIBOGREEN, Yap1 mRNA relative to untreated control cells

## 1074605 (DNA kT*k[5mC]*kA*dA*d[5mC]*dT*dA*d[5mC]*d[5mC]*dA*dA*dT*dA*kT*kA*k[5mC]) [compound 1074605]
[1]
  YAP1 (% UTC): 20 % UTC

## 958352 (k[5mC]*kG*kG*dT*d[5mC]*dT*d[5mC]*d[5mC]*dG*dA*dG*dT*d[5mC]*k[5mC]*k[5mC]*k[5mC]; antisense) [Compound 958352]
[2]
  YAP1 (% UTC): 110 % UTC

## 958395 (antisense k[5mC]*kT*kA*dA*d[5mC]*dA*dA*d[5mC]*d[5mC]*dT*dG*dG*dT*kT*kT*kG) [Compound 958395]
[2]
  YAP1 (% UTC): 114 % UTC

## 1074382 (kA*kG*kG*dT*dA*dG*dT*d[5mC]*dT*dG*dG*dG*dA*kA*kA*k[5mC]; antisense) [compound 1074382]
[3]
  YAP1 (% UTC): 8 % UTC

## 958448 (antisense kG*k[5mC]*kG*dA*dA*dG*dG*d[5mC]*dG*dG*d[5mC]*dT*dG*k[5mC]*k[5mC]*k[5mC]) [Compound 958448]
[4]
  YAP1 (% UTC): 86 % UTC

## 1074541 (k[5mC]*kA*k[5mC]*dT*dA*dT*d[5mC]*d[5mC]*dA*d[5mC]*dA*dG*dT*kA*kA*kT; antisense) [compound 1074541]
[1]
  YAP1 (% UTC): 23 % UTC

## 1076558 (kG*k[5mC]*k[5mC]*dA*dA*dA*dT*dA*dT*dT*dT*dA*dA*k[5mC]*kT*k[5mC]; antisense) [compound 1076558]
[3]
  YAP1 (% UTC): 30 % UTC

## 1075436 (antisense k[5mC]*k[5mC]*kT*dT*dA*dA*dA*d[5mC]*dG*dA*dT*dA*dA*kA*kG*kT) [compound 1075436]
[5]
  YAP1 (% UTC): 89 % UTC

## 1076116 (kG*kA*kA*dA*dA*dT*dA*dG*d[5mC]*d[5mC]*d[5mC]*dA*dT*kT*kA*kG; antisense) [compound 1076116]
[6]
  YAP1 (% UTC): 25 % UTC

## 1075341 (antisense kG*k[5mC]*kT*dG*dA*dA*d[5mC]*dA*dA*dT*d[5mC]*dT*d[5mC]*k[5mC]*k[5mC]*kG) [compound 1075341]
[1]
  YAP1 (% UTC): 31 % UTC

## 1076053 (kT*kA*k[5mC]*d[5mC]*dA*dA*d[5mC]*dA*dA*dG*dG*d[5mC]*dA*kT*k[5mC]*kA; antisense) [compound 1076053]
[7]
  YAP1 (% UTC): 55 % UTC

## 1074133 (kG*k[5mC]*kG*dG*d[5mC]*d[5mC]*d[5mC]*d[5mC]*dG*d[5mC]*dA*dT*d[5mC]*k[5mC]*k[5mC]*k[5mC]; antisense) [compound 1074133]
[7]
  YAP1 (% UTC): 101 % UTC

## 958738 (antisense kT*k[5mC]*kT*dA*dT*dA*dT*dG*dT*dT*dT*d[5mC]*d[5mC]*k[5mC]*k[5mC]*k[5mC]) [Compound 958738]
[4]
  YAP1 (% UTC): 11 % UTC

## 1075372 (antisense kA*kT*kA*dT*dA*dT*dA*dG*dA*d[5mC]*dT*dT*dG*kA*kG*kA) [compound 1075372]
[5]
  YAP1 (% UTC): 27 % UTC

## 958576 (kG*kT*kG*dG*d[5mC]*dT*dA*d[5mC]*dT*dG*dG*d[5mC]*dA*kA*kA*kT; antisense) [Compound 958576]
[8]
  YAP1 (% UTC): 53 % UTC

## 1075188 (kA*kG*kT*d[5mC]*dA*dA*d[5mC]*d[5mC]*dT*dG*dT*dA*dA*kT*kT*kA; antisense) [compound 1075188]
[6]
  YAP1 (% UTC): 14 % UTC

## 958512 (k[5mC]*kA*kT*dT*d[5mC]*d[5mC]*dA*d[5mC]*dT*dA*d[5mC]*d[5mC]*dA*k[5mC]*kA*k[5mC]; antisense) [Compound 958512]
[9]
  YAP1 (% UTC): 14 % UTC

## 1074380 (kG*kT*k[5mC]*dT*dG*dG*dG*dA*dA*dA*d[5mC]*dG*dG*kT*kT*k[5mC]; antisense) [compound 1074380]
[5]
  YAP1 (% UTC): 11 % UTC

## 958503 (kA*kA*k[5mC]*d[5mC]*dA*dT*d[5mC]*d[5mC]*d[5mC]*dA*dA*dG*d[5mC]*kT*kA*k[5mC]; antisense) [Compound 958503]
[4]
  YAP1 (% UTC): 15 % UTC

## 958734 (antisense kA*k[5mC]*kA*d[5mC]*dA*dT*dA*dG*dA*dG*d[5mC]*dT*dA*kA*kG*kG) [Compound 958734]
[10]
  YAP1 (% UTC): 7 % UTC

## 1075349 (antisense kA*kT*kT*dA*dA*dA*dG*d[5mC]*dT*d[5mC]*dA*dT*dT*kG*kA*kT) [compound 1075349]
[7]
  YAP1 (% UTC): 81 % UTC

## 1075796 (kA*kG*kT*dA*dA*dT*dT*dA*dT*dA*dT*dA*d[5mC]*k[5mC]*k[5mC]*kA; antisense) [compound 1075796]
[6]
  YAP1 (% UTC): 64 % UTC

## 1076149 (kT*kT*kA*dT*dT*dA*dA*d[5mC]*dT*d[5mC]*dA*d[5mC]*dG*kA*kA*kG; antisense) [compound 1076149]
[7]
  YAP1 (% UTC): 24 % UTC

## 958470 (antisense kT*kA*kG*dA*dT*d[5mC]*d[5mC]*dT*dT*d[5mC]*dA*d[5mC]*dA*kG*kA*kT) [Compound 958470]
Table 13, A-431 cells, 5,000 cells per well, free uptake, 2,000 nM modified oligonucleotide, approx. 48 hours, RTS36584, normalized to RIBOGREEN, Yap1 mRNA relative to untreated control cells
  YAP1 (% UTC): 18 % UTC

## 958707 (antisense kT*k[5mC]*kA*dA*dT*dG*d[5mC]*dT*dG*dT*dA*dT*d[5mC]*kA*kG*kA) [Compound 958707]
[9]
  YAP1 (% UTC): 23 % UTC

## 958728 (antisense kT*kA*kT*d[5mC]*dT*dG*dT*d[5mC]*dA*dG*dT*dT*dA*kT*k[5mC]*k[5mC]) [Compound 958728]
[4]
  YAP1 (% UTC): 10 % UTC

## 958759 (antisense kG*k[5mC]*k[5mC]*dT*dA*dT*d[5mC]*dG*d[5mC]*d[5mC]*d[5mC]*d[5mC]*dA*kA*kG*k[5mC]) [Compound 958759]
[10]
  YAP1 (% UTC): 61 % UTC

## 1074324 (antisense kG*k[5mC]*kA*dG*dG*dG*d[5mC]*dT*dA*dA*d[5mC]*dT*d[5mC]*k[5mC]*kT*kG) [compound 1074324]
[6]
  YAP1 (% UTC): 116 % UTC

## 958598 (k[5mC]*k[5mC]*k[5mC]*dA*dA*dT*dG*d[5mC]*dT*dA*d[5mC]*d[5mC]*d[5mC]*kA*kA*kT; antisense) [Compound 958598]
[4]
  YAP1 (% UTC): 4 % UTC

## 958571 (k[5mC]*kA*kA*d[5mC]*dA*dA*d[5mC]*dA*dT*dG*d[5mC]*dT*dA*kT*kG*kT; antisense) [Compound 958571]
[8]
  YAP1 (% UTC): 43 % UTC

## 1075957 (k[5mC]*kT*kA*dT*dA*dA*dA*dG*d[5mC]*dA*dA*dT*dG*k[5mC]*kG*kA; antisense) [compound 1075957]
[7]
  YAP1 (% UTC): 28 % UTC

## 958382 (antisense kT*kT*k[5mC]*d[5mC]*dT*d[5mC]*dT*dG*d[5mC]*dG*d[5mC]*dG*d[5mC]*k[5mC]*k[5mC]*kG) [Compound 958382]
[2]
  YAP1 (% UTC): 111 % UTC

## 958709 (antisense kT*k[5mC]*kA*dA*dT*d[5mC]*dT*dA*dT*dG*dA*dG*dA*k[5mC]*k[5mC]*k[5mC]) [Compound 958709]
[10]
  YAP1 (% UTC): 57 % UTC

## 1075822 (k[5mC]*kT*kT*dA*dG*dT*dA*dA*dT*dT*dG*d[5mC]*d[5mC]*k[5mC]*kA*kT; antisense) [compound 1075822]
[3]
  YAP1 (% UTC): 35 % UTC

## 958816 (kG*kT*kG*dA*dT*dA*dA*d[5mC]*dA*dT*dA*dT*d[5mC]*k[5mC]*k[5mC]*kA; antisense) [Compound 958816]
[8]
  YAP1 (% UTC): 71 % UTC

## 1076110 (k[5mC]*kT*kT*dT*dA*d[5mC]*d[5mC]*dT*dA*dA*dA*dT*dG*kT*kT*kG; antisense) [compound 1076110]
[3]
  YAP1 (% UTC): 53 % UTC

## 1074317 (antisense kG*kA*kG*dA*dA*dT*dT*dT*dG*d[5mC]*dT*dG*dT*kG*k[5mC]*kT) [compound 1074317]
[1]
  YAP1 (% UTC): 12 % UTC

## 958684 (kG*k[5mC]*kT*dG*dA*dA*dG*dA*d[5mC]*dG*dG*d[5mC]*d[5mC]*k[5mC]*kT*kT; antisense) [Compound 958684]
[10]
  YAP1 (% UTC): 70 % UTC

## 1074286 (antisense kT*kG*kA*dT*dT*d[5mC]*dT*d[5mC]*dT*dG*dG*dT*dT*k[5mC]*kA*kT) [compound 1074286]
[3]
  YAP1 (% UTC): 32 % UTC

## 1076300 (kA*kA*kA*dA*dA*dA*dT*dG*dG*d[5mC]*dT*dT*d[5mC]*kA*k[5mC]*kG; antisense) [compound 1076300]
[5]
  YAP1 (% UTC): 22 % UTC

## 958677 (kA*kG*kA*dA*d[5mC]*dT*dT*dA*dG*dT*dT*d[5mC]*d[5mC]*k[5mC]*kT*kA; antisense) [Compound 958677]
[9]
  YAP1 (% UTC): 51 % UTC

## 958422 (antisense kT*kT*kT*d[5mC]*dT*dT*dA*dA*d[5mC]*d[5mC]*dA*dG*d[5mC]*kG*kG*kA) [Compound 958422]
[2]
  YAP1 (% UTC): 15 % UTC

## 1074293 (antisense kG*k[5mC]*kT*dG*dT*dT*dT*d[5mC]*dA*d[5mC]*dT*dG*dG*kA*kG*k[5mC]) [compound 1074293]
[7]
  YAP1 (% UTC): 54 % UTC
